Structures can show the parent of a compound that is named as a salt.

What is called viability is a read-out of living cells in per cent, often relative to untreated cells.

This data set can be described thus: in vitro. Particulars: human, hek293t cells.
Turning to `CC(C)CNC(=O)c1ccccc1NC(=O)CCl` [4-E04, 2-(2-chloroacetamido)-N-(2-methylpropyl)benzamide], the viability at 48 h, 25 µM worked out at 0.855%. The result for `COc1ccc(S(=O)(=O)N(C)C)cc1NC(=O)CCl` [4-E05, 2-chloro-N-[5-(dimethylsulfamoyl)-2-methoxyphenyl]acetamide] reads 0.891%; that for `CN(C(=O)CCl)c1c(N)n(Cc2ccccc2)c(=O)[nH]c1=O` [4-E06, N-(6-amino-1-benzyl-2,4-dioxo-1,2,3,4-tetrahydropyrimidin-5-yl)-2-chloro-N-methylacetamide], 22.8%. The result for `Cc1c(NC(=O)CCl)cccc1[N+](=O)[O-]` [4-E07, 2-chloro-N-(2-methyl-3-nitrophenyl)acetamide] reads 1.23%; that for `CC(Cl)C(=O)Nc1nc(-c2cccc([N+](=O)[O-])c2)cs1` (stereo not shown) [4-E08, 2-chloro-N-[4-(3-nitrophenyl)-1,3-thiazol-2-yl]propanamide], 59.7%.

Turning to `CCN(CC)S(=O)(=O)c1cc(NC(=O)CCl)ccc1C` [4-E09, 2-chloro-N-[3-(diethylsulfamoyl)-4-methylphenyl]acetamide], the viability at 48 h, 25 µM is 0.544%.

Regarding `CSC1=C(C#N)C2(CCCCC2)C(C#N)=C(NC(=O)CCl)N1` [4-E10, 2-chloro-N-[1,5-dicyano-4-(methylsulfanyl)-3-azaspiro[5.5]undeca-1,4-dien-2-yl]acetamide], the viability at 48 h, 25 µM came out at 0.534%.

For the compound `CSc1ccccc1NC(=O)CCl` [4-E11, 2-chloro-N-[2-(methylsulfanyl)phenyl]acetamide], the viability at 48 h, 25 µM was determined as 0.595%.

For `CCn1c2ccccc2c2cc(NC(=O)C(C)Cl)ccc21` (stereo not shown) [4-E12, 2-chloro-N-(9-ethyl-9H-carbazol-3-yl)propanamide], the viability at 48 h, 25 µM amounted to 55.6%. The result for `CC(C)C(NC(=O)CCl)c1ccc(F)cc1` (stereo not shown) [4-E13, 2-chloro-N-[1-(4-fluorophenyl)-2-methylpropyl]acetamide] reads 1.68%; that for `CC(Cl)C(=O)N1CCN(c2ccccc2)CC1` (stereo not shown) [4-E14, 2-chloro-1-(4-phenylpiperazin-1-yl)propan-1-one hydrochloride], 66.3%; that for `COc1ccc(NC(=O)CCl)cc1S(=O)(=O)N(C)C` [4-E15, 2-chloro-N-[3-(dimethylsulfamoyl)-4-methoxyphenyl]acetamide], 0.774%.

As for `O=C(CCl)N1CCCSc2ccccc21` [4-E16, 2-chloro-1-(2,3,4,5-tetrahydro-1,5-benzothiazepin-5-yl)ethan-1-one], the viability at 48 h, 25 µM was determined as 0.703%. For `CCOC(=O)c1ccc(NC(=O)CCl)cc1` [4-E17, ethyl 4-(2-chloroacetamido)benzoate] the value was 0.753%; for `O=C(CCl)NS(=O)(=O)c1ccc(Cl)cc1` [4-E18, 2-chloro-N-(4-chlorobenzenesulfonyl)acetamide], 79.9%.

With `CN(CC(=O)Nc1ccc(Cl)c(C(F)(F)F)c1)C(=O)CCl` [4-E19, 2-chloro-N-({[4-chloro-3-(trifluoromethyl)phenyl]carbamoyl}methyl)-N-methylacetamide], the viability at 48 h, 25 µM amounted to 0.379%. Consider `COC(=O)c1c(NC(=O)CCl)sc(Cl)c1-c1ccccc1` [4-E20, methyl 5-chloro-2-(2-chloroacetamido)-4-phenylthiophene-3-carboxylate], for which the viability at 48 h, 25 µM worked out at 0.576%. For `CC(C)OC(=O)c1c(NC(=O)CCl)sc2c1CCCC2` [4-E21, propan-2-yl 2-(2-chloroacetamido)-4,5,6,7-tetrahydro-1-benzothiophene-3-carboxylate] the value was 112%; for `O=C(CCl)N1N=C(c2cccc(F)c2)CC1c1cccs1` (stereo not shown) [4-E22, 2-chloro-1-[3-(3-fluorophenyl)-5-(thiophen-2-yl)-4,5-dihydro-1H-pyrazol-1-yl]ethan-1-one], 0.0972%. For `COc1ccc(CN(C)C(=O)CCl)cc1F` [4-F03, 2-chloro-N-[(3-fluoro-4-methoxyphenyl)methyl]-N-methylacetamide] the value was 0.725%. For `CCc1cccc(NC(=O)CCl)c1` [4-F04, 2-chloro-N-(3-ethylphenyl)acetamide] the value was 0.569%; for `CC(=O)c1cccc(S(=O)(=O)N2CCN(C(=O)CCl)CC2)c1` [4-F05, 1-[4-(3-acetylbenzenesulfonyl)piperazin-1-yl]-2-chloroethan-1-one], 0.228%. For the compound `CC(C)c1ccccc1NC(=O)CCl` [4-F06, 2-chloro-N-[2-(propan-2-yl)phenyl]acetamide], the viability at 48 h, 25 µM was found to be 1.92%. With `COC(=O)c1c(-c2ccccc2Cl)csc1NC(=O)CCl` [4-F07, methyl 2-(2-chloroacetamido)-4-(2-chlorophenyl)thiophene-3-carboxylate], the viability at 48 h, 25 µM came out at 5.7%. `O=C(CCl)Nc1ccc(S(=O)(=O)N2CCCC2)cc1` [4-F08, 2-chloro-N-[4-(pyrrolidine-1-sulfonyl)phenyl]acetamide]: the viability at 48 h, 25 µM amounted to 1.07%. For `O=C(CCl)Nc1cc(S(=O)(=O)N2CCCCC2)ccc1Cl` [4-F09, 2-chloro-N-[2-chloro-5-(piperidine-1-sulfonyl)phenyl]acetamide] the value was 0.505%; for `CCc1cccc(CC)c1NC(=O)CCl` [4-F10, 2-chloro-N-(2,6-diethylphenyl)acetamide], 99.1%; for `O=C(CCl)N(CC1=CCSC1)c1ccccc1` [4-F11, 2-chloro-N-[(2,5-dihydrothiophen-3-yl)methyl]-N-phenylacetamide], 0.548%. For `COc1ccc(-c2csc(NC(=O)CCl)n2)c(OC)c1` [4-F12, 2-chloro-N-[4-(2,4-dimethoxyphenyl)-1,3-thiazol-2-yl]acetamide] the value was 0.886%; for `CC(Cl)C(=O)NCC1COc2ccccc2O1` (stereo not shown) [4-F13, 2-chloro-N-[(2,3-dihydro-1,4-benzodioxin-2-yl)methyl]propanamide], 91.4%; for `O=C(CCl)Nc1ccc(OC(F)F)c(Cl)c1` [4-F14, 2-chloro-N-[3-chloro-4-(difluoromethoxy)phenyl]acetamide], 0.982%.

With `O=C(CCl)Nc1nnc(SCc2ccccc2)s1` [4-F15, N-[5-(benzylsulfanyl)-1,3,4-thiadiazol-2-yl]-2-chloroacetamide], the viability at 48 h, 25 µM is 0.76%. The result for `O=C(CCl)N1CCN(CC=Cc2ccccc2)CC1` [4-F16, 2-chloro-1-[4-(3-phenylprop-2-en-1-yl)piperazin-1-yl]ethan-1-one hydrochloride] reads 0.223%; that for `COc1ccc(Cc2cnc(NC(=O)CCl)s2)cc1` [4-F17, 2-chloro-N-{5-[(4-methoxyphenyl)methyl]-1,3-thiazol-2-yl}acetamide], -0.0636%; that for `CC(Cl)C(=O)Nc1ccc(OC(F)F)c(Cl)c1` (stereo not shown) [4-F18, 2-chloro-N-[3-chloro-4-(difluoromethoxy)phenyl]propanamide], 91.5%.

Take `CCc1ccc(Cc2cnc(NC(=O)CCl)s2)cc1` [4-F19, 2-chloro-N-{5-[(4-ethylphenyl)methyl]-1,3-thiazol-2-yl}acetamide]: the viability at 48 h, 25 µM stood at 0.0785%. For `COc1ccc(-n2c(C)c(C)c(C#N)c2NC(=O)CCl)cc1` [4-F20, 2-chloro-N-[3-cyano-1-(4-methoxyphenyl)-4,5-dimethyl-1H-pyrrol-2-yl]acetamide], the viability at 48 h, 25 µM is 0.583%. As to `Cc1cc(NC(=O)CCl)c([N+](=O)[O-])cc1C` [4-F21, 2-chloro-N-(4,5-dimethyl-2-nitrophenyl)acetamide], the viability at 48 h, 25 µM came out at 112%.

For `O=C(CCl)NCc1ccccc1S(=O)(=O)N1CCOCC1` [4-F22, 2-chloro-N-{[2-(morpholine-4-sulfonyl)phenyl]methyl}acetamide], the viability at 48 h, 25 µM amounted to 2.15%. As to `Cc1ccc(Sc2ccc(NC(=O)CCl)cc2)cc1C` [4-G03, 2-chloro-N-{4-[(3,4-dimethylphenyl)sulfanyl]phenyl}acetamide], the viability at 48 h, 25 µM is -0.101%. For `O=C(CCl)NC(c1ccccc1)c1ccc(Cl)cc1` (stereo not shown) [4-G04, 2-chloro-N-[(4-chlorophenyl)(phenyl)methyl]acetamide] the value was -0.0119%. The result for `Cc1cc(NC(=O)CCl)n(-c2ccccc2)n1` [4-G05, 2-chloro-N-(3-methyl-1-phenyl-1H-pyrazol-5-yl)acetamide] reads 0.983%. The result for `CC(Cl)C(=O)Nc1ccc2c(c1)C(=O)c1ccccc1C2=O` (stereo not shown) [4-G06, 2-chloro-N-(9,10-dioxo-9,10-dihydroanthracen-2-yl)propanamide] reads 58.6%; that for `CC(=O)c1ccc(NC(=O)CCl)cc1` [4-G07, N-(4-acetylphenyl)-2-chloroacetamide], 0.0514%. Regarding `O=C(CCl)NCc1ccccc1CS(=O)(=O)N1CCOCC1` [4-G08, 2-chloro-N-({2-[(morpholine-4-sulfonyl)methyl]phenyl}methyl)acetamide], the viability at 48 h, 25 µM was 0.79%. Turning to `COc1cc(NC(=O)CCl)cc(OC)c1` [4-G09, 2-chloro-N-(3,5-dimethoxyphenyl)acetamide], the viability at 48 h, 25 µM was determined as 8.6%. The result for `O=C(CCl)Nc1ccccc1C(=O)Nc1ccc(Cl)cc1` [4-G10, 2-(2-chloroacetamido)-N-(4-chlorophenyl)benzamide] reads 0.0501%; that for `COc1cc(OC)c(NC(=O)CCl)cc1Cl` [4-G11, 2-chloro-N-(5-chloro-2,4-dimethoxyphenyl)acetamide], 0.402%; that for `CC(Cl)C(=O)Nc1ccc(C(C)(C)C)cc1` (stereo not shown) [4-G12, N-(4-tert-butylphenyl)-2-chloropropanamide], 66.1%. For `O=C(CCl)N(Cc1ccccc1)c1ccccc1` [4-G13, N-benzyl-2-chloro-N-phenylacetamide] the value was 1.23%; for `CC(Cl)C(=O)Nc1ccccc1-c1ccccc1` (stereo not shown) [4-G14, N-{[1,1'-biphenyl]-2-yl}-2-chloropropanamide], 69.4%; for `CCCSc1nsc(NC(=O)CCl)n1` [4-G15, 2-chloro-N-[3-(propylsulfanyl)-1,2,4-thiadiazol-5-yl]acetamide], 17.4%.

The values above are taken from paper PMC11995724, “Antibiotic target discovery by integrated phenotypic and activity-based profiling of electrophilic fragments” (Cell chemical biology, 2025).
